≈ marks a conversion by molar mass, not a printed value. Calls of active or inactive are those of the source. The calls are words filed in the database; no cut-off is given here. Bridge positions count the residues as written; N and C are the ends. Square brackets hold non-standard residues; d marks the D form. Peptide text beside a SMILES is read from it. * marks the point of attachment. Phe(3,5-F2) = N[C@@H](Cc1cc(F)cc(F)c1)C(=O)O; Pro(4R-Me) = C[C@H]1CN[C@H](C(=O)O)C1; aThr = C[C@H](O)[C@H](N)C(=O)O; Pip = O=C(O)[C@@H]1CCCCN1; X1 = CCC/C=C/C=C/C(=O)*
Columns and labels:
[1] = molecular target: ATP-dependent Clp protease proteolytic subunit (Escherichia coli (strain K12), UniProt P0A6G7); assay: Activation of N-terminal His-tagged recombinant Escherichia coli ClpP expressed in Escherichia coli SG1146(DE3) assessed as degradation of casein-FITC preincubated for 10 mins followed by casein addition measured for over 100 mins by fluorescence based assay
[2] = molecular target: ATP-dependent Clp protease proteolytic subunit (Neisseria gonorrhoeae, UniProt Q5F914); assay: Activation of N-terminal His-tagged recombinant Neisseria gonorrhoeae ClpP expressed in Escherichia coli SG1146(DE3) assessed as degradation of casein-FITC preincubated for 10 mins followed by casein addition measured for over 100 mins by fluorescence based assay
Neisseria gonorrhoeae [3] = assay: Antibacterial activity against Neisseria gonorrhoeae MS11 measured after 16 to 18 hrs by OD based assay; format: functional; conditions: time 16-18 hrs
Neisseria gonorrhoeae [4] = assay: Antibacterial activity against Neisseria gonorrhoeae FA19 measured after 16 to 18 hrs by OD based assay; format: functional; conditions: time 16-18 hrs
Neisseria gonorrhoeae [5] = assay: Antibacterial activity against Neisseria gonorrhoeae WHO G measured after 16 to 18 hrs by OD based assay; format: functional; conditions: time 16-18 hrs
Neisseria gonorrhoeae [6] = assay: Antibacterial activity against Neisseria gonorrhoeae WHO K measured after 16 to 18 hrs by OD based assay; format: functional; conditions: time 16-18 hrs
Neisseria gonorrhoeae [7] = assay: Antibacterial activity against Neisseria gonorrhoeae WHO L measured after 16 to 18 hrs by OD based assay; format: functional; conditions: time 16-18 hrs
Neisseria gonorrhoeae [8] = assay: Antibacterial activity against Neisseria gonorrhoeae WHO M measured after 16 to 18 hrs by OD based assay; format: functional; conditions: time 16-18 hrs
Neisseria gonorrhoeae [9] = assay: Antibacterial activity against Neisseria gonorrhoeae WHO N measured after 16 to 18 hrs by OD based assay; format: functional; conditions: time 16-18 hrs
Neisseria gonorrhoeae [10] = assay: Antibacterial activity against Neisseria gonorrhoeae WHO P measured after 16 to 18 hrs by OD based assay; format: functional; conditions: time 16-18 hrs
Neisseria gonorrhoeae [11] = assay: Antibacterial activity against Neisseria gonorrhoeae WHO V measured after 16 to 18 hrs by OD based assay; format: functional; conditions: time 16-18 hrs
Neisseria gonorrhoeae [12] = assay: Antibacterial activity against Neisseria gonorrhoeae WHO X measured after 16 to 18 hrs by OD based assay; format: functional; conditions: time 16-18 hrs
Neisseria gonorrhoeae [13] = assay: Antibacterial activity against Neisseria gonorrhoeae WHO Y measured after 16 to 18 hrs by OD based assay; format: functional; conditions: time 16-18 hrs
Neisseria gonorrhoeae [14] = assay: Antibacterial activity against Neisseria gonorrhoeae WHO Z measured after 16 to 18 hrs by OD based assay; format: functional; conditions: time 16-18 hrs
Neisseria meningitidis [15] = assay: Antibacterial activity against wild-type Neisseria meningitidis H44/76 measured after 16 to 18 hrs by OD based assay; format: functional; conditions: time 16-18 hrs
Neisseria meningitidis [16] = assay: Antibacterial activity against Neisseria meningitidis H44/76 harboring deltaclpP measured after 16 to 18 hrs by OD based assay; format: functional; conditions: time 16-18 hrs
Neisseria meningitidis [17] = assay: Antibacterial activity against Neisseria meningitidis EG329 measured after 16 to 18 hrs by OD based assay; format: functional; conditions: time 16-18 hrs
Neisseria meningitidis [18] = assay: Antibacterial activity against Neisseria meningitidis BZ169 measured after 16 to 18 hrs by OD based assay; format: functional; conditions: time 16-18 hrs
Neisseria meningitidis [19] = assay: Antibacterial activity against Neisseria meningitidis NGPB24 measured after 16 to 18 hrs by OD based assay; format: functional; conditions: time 16-18 hrs
Neisseria meningitidis [20] = assay: Antibacterial activity against Neisseria meningitidis AK50 measured after 16 to 18 hrs by OD based assay; format: functional; conditions: time 16-18 hrs
Neisseria meningitidis [21] = assay: Antibacterial activity against Neisseria meningitidis 88/03415 measured after 16 to 18 hrs by OD based assay; format: functional; conditions: time 16-18 hrs
Neisseria meningitidis [22] = assay: Antibacterial activity against Neisseria meningitidis BZ133 measured after 16 to 18 hrs by OD based assay; format: functional; conditions: time 16-18 hrs
Neisseria meningitidis [23] = assay: Antibacterial activity against Neisseria meningitidis SWZ107 measured after 16 to 18 hrs by OD based assay; format: functional; conditions: time 16-18 hrs
Neisseria meningitidis [24] = assay: Antibacterial activity against Neisseria meningitidis NGF26 measured after 16 to 18 hrs by OD based assay; format: functional; conditions: time 16-18 hrs
Neisseria meningitidis [25] = assay: Antibacterial activity against Neisseria meningitidis NG144/82 measured after 16 to 18 hrs by OD based assay; format: functional; conditions: time 16-18 hrs
[26] = molecular target: T1, ATP-dependent Clp protease proteolytic subunit (Staphylococcus aureus (strain NCTC 8325)) (UniProt Q2G036); assay: Activation of N-terminal His-tagged recombinant Staphylococcus aureus ClpP expressed in Escherichia coli SG1146(DE3) assessed as degradation of casein-FITC at 100 uM preincubated for 10 mins followed by casein addition measured for over 100 mins by fluorescence based assay; conditions: time > 110.0 min
T1 sequence (whole entry): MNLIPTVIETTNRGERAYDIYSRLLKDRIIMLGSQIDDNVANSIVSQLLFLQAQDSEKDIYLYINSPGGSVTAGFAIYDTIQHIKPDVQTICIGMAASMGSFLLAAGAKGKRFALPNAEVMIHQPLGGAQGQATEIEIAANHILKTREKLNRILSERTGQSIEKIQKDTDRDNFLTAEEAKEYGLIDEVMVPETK

Streptococcus pneumoniae = assay: Activation of recombinant Streptococcus pneumoniae ClpP extracted from Escherichia coli SG1146(DE3) assessed as degradation of casein-FITC at 100 uM preincubated for 10 mins followed by casein addition measured for over 100 mins by fluorescence based assay; conditions: time > 110.0 min
[27] = molecular target: ATP-dependent Clp protease proteolytic subunit, mitochondrial (Homo sapiens) (UniProt Q16740); assay: Activation of N-terminal His-tagged recombinant human ClpP expressed in Escherichia coli SG1146(DE3) assessed as degradation of casein-FITC at 100 uM preincubated for 10 mins followed by casein addition measured for over 100 mins by fluorescence based assay; conditions: time > 110.0 min
[28] = molecular target: ATP-dependent Clp protease proteolytic subunit (Escherichia coli (strain K12)) (UniProt P0A6G7); assay: Activation of N-terminal His-tagged recombinant Escherichia coli ClpP expressed in Escherichia coli SG1146(DE3) assessed as degradation of casein-FITC at 100 uM preincubated for 10 mins followed by casein addition measured for over 100 mins by fluorescence based assay; conditions: filed as activator, time > 110.0 min
[29] = molecular target: ATP-dependent Clp protease proteolytic subunit (Neisseria gonorrhoeae) (UniProt Q5F914); assay: Activation of N-terminal His-tagged recombinant Neisseria gonorrhoeae ClpP expressed in Escherichia coli SG1146(DE3) assessed as degradation of casein-FITC at 100 uM preincubated for 10 mins followed by casein addition measured for over 100 mins by fluorescence based assay; conditions: time > 110.0 min
ATP-dependent Clp protease proteolytic subunit (Neisseria gonorrhoeae), sequence (Q5F914 whole entry): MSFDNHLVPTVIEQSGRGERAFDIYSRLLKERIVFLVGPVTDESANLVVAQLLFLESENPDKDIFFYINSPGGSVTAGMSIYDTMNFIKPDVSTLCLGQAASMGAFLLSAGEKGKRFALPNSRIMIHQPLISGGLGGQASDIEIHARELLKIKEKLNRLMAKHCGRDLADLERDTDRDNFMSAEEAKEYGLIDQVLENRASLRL

ATP-dependent Clp protease proteolytic subunit (Neisseria gonorrhoeae, UniProt Q5F914), sequence (Q5F914 whole entry): as above
ATP-dependent Clp protease proteolytic subunit (Escherichia coli (strain K12), UniProt P0A6G7), sequence (P0A6G7 whole entry): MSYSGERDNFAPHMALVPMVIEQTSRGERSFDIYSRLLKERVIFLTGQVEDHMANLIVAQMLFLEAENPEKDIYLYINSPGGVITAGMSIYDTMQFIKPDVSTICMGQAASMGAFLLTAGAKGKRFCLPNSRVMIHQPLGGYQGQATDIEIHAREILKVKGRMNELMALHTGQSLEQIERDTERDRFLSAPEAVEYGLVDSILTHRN
ATP-dependent Clp protease proteolytic subunit, mitochondrial (Homo sapiens), sequence (Q16740 whole entry): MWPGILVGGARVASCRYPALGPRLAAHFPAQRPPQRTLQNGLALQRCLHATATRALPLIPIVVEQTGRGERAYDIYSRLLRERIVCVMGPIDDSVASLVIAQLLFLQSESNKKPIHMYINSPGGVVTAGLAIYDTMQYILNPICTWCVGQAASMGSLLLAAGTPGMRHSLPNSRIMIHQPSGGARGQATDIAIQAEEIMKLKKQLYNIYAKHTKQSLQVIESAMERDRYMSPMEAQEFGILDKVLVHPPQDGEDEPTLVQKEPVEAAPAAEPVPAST
ATP-dependent Clp protease proteolytic subunit (Escherichia coli (strain K12)), sequence (P0A6G7 whole entry): as the sequence (P0A6G7 whole entry) above

In the case of `CCC/C=C/C=C/C(=O)N[C@@H](Cc1cc(F)cc(F)c1)C(=O)N[C@@H]1C(=O)N2CCC[C@H]2C(=O)N2CCCC[C@H]2C(=O)N[C@@H](C)C(=O)N2C[C@H](C)C[C@H]2C(=O)O[C@H]1C` (X1-[Phe(3,5-F2)][aThr]P[Pip]A[Pro(4R-Me)]; ester 2-C), the EC50 [1] is reported as 4.69 µM, the EC50 [2] is reported as 0.23 µM and the MIC (Neisseria gonorrhoeae [3]) is reported as 0.3 µM (≈ 0.239 µg/mL). It also gave an MIC (Neisseria gonorrhoeae [4]) of 1.6 µM (≈ 1.28 µg/mL), an MIC (Neisseria gonorrhoeae [5]) of 0.3 µM (≈ 0.239 µg/mL) and an MIC (Neisseria gonorrhoeae [6]) of 0.3 µM (≈ 0.239 µg/mL). For the same compound, the MIC (Neisseria gonorrhoeae [7]) was 0.3 µM (≈ 0.239 µg/mL), the MIC (Neisseria gonorrhoeae [8]) was 0.3 µM (≈ 0.239 µg/mL) and the MIC (Neisseria gonorrhoeae [9]) was 0.3 µM (≈ 0.239 µg/mL). For the same compound, the MIC (Neisseria gonorrhoeae [10]) was 4.7 µM (≈ 3.75 µg/mL), the MIC (Neisseria gonorrhoeae [11]) was 3.1 µM (≈ 2.47 µg/mL) and the MIC (Neisseria gonorrhoeae [12]) was 0.3 µM (≈ 0.239 µg/mL). The MIC (Neisseria gonorrhoeae [13]) was 0.3 µM (≈ 0.239 µg/mL), the MIC (Neisseria gonorrhoeae [14]) was 0.3 µM (≈ 0.239 µg/mL) and the MIC (Neisseria meningitidis [15]) was < 0.3 µM. For the same compound, the MIC (Neisseria meningitidis [16]) was > 25 µM, the MIC (Neisseria meningitidis [17]) was < 0.3 µM and the MIC (Neisseria meningitidis [18]) was 0.3 µM (≈ 0.239 µg/mL). For the same compound, the MIC (Neisseria meningitidis [19]) was 0.3 µM (≈ 0.239 µg/mL), the MIC (Neisseria meningitidis [20]) was 1.6 µM (≈ 1.28 µg/mL) and the MIC (Neisseria meningitidis [21]) was 0.3 µM (≈ 0.239 µg/mL). The MIC (Neisseria meningitidis [22]) was 0.3 µM (≈ 0.239 µg/mL), the MIC (Neisseria meningitidis [23]) was < 0.3 µM and the MIC (Neisseria meningitidis [24]) was 2.4 µM (≈ 1.91 µg/mL). For the same compound, the MIC (Neisseria meningitidis [25]) was 0.3 µM (≈ 0.239 µg/mL).
In the case of `O=C(CP(=O)(c1ccc(C(F)(F)F)cn1)c1ccc(C(F)(F)F)cn1)NCCSc1ccccc1C(F)(F)F`, the Activity [26] is reported as “inactive”, the Activity (Streptococcus pneumoniae) is reported as “inactive” and the Activity [27] is reported as “inactive”. The EC50 [1] was 1.79 µM and the EC50 [2] was 4.9 µM.
In the case of `CCCC/C=C/C(=O)N[C@@H](Cc1ccccc1)C(=O)N[C@H]1COC(=O)[C@@H]2CCCN2C(=O)[C@H](C)NC(=O)[C@@H]2CCCCN2C(=O)[C@@H]2CCCN2C1=O`, the Activity [26] is reported as “inactive” and the Activity (Streptococcus pneumoniae) is reported as “inactive”.
For `CC(C(=O)NCCSc1ccccc1C(F)(F)F)P(=O)(c1ccc(C(F)(F)F)cc1)c1ccc(C(F)(F)F)cc1` (stereo not given), the Activity [28] was “Active”, the Activity [29] was “inactive” and the EC50 [1] was 4.45 µM.
For `CC(C)(C(=O)NCCSc1ccccc1Cl)P(=O)(c1ccc(C(F)(F)F)cc1)c1ccc(C(F)(F)F)cc1`, the EC50 [1] was 4.77 µM and the EC50 [2] was 1.58 µM.
`CC(C(=O)NCCSc1ccccc1Cl)P(=O)(c1ccccc1)c1ccccc1` (stereo not given) was tested, and the MIC (Neisseria gonorrhoeae [3]) was 3.1 µM (≈ 1.38 µg/mL), the MIC (Neisseria gonorrhoeae [4]) was 3.1 µM (≈ 1.38 µg/mL) and the MIC (Neisseria gonorrhoeae [5]) was 1.6 µM (≈ 0.71 µg/mL). For the same compound, the MIC (Neisseria gonorrhoeae [6]) was 1.6 µM (≈ 0.71 µg/mL), the MIC (Neisseria gonorrhoeae [7]) was 3.1 µM (≈ 1.38 µg/mL) and the MIC (Neisseria gonorrhoeae [8]) was 1.6 µM (≈ 0.71 µg/mL). The MIC (Neisseria gonorrhoeae [9]) was 1.6 µM (≈ 0.71 µg/mL), the MIC (Neisseria gonorrhoeae [10]) was 3.1 µM (≈ 1.38 µg/mL) and the MIC (Neisseria gonorrhoeae [11]) was 3.1 µM (≈ 1.38 µg/mL). The MIC (Neisseria gonorrhoeae [12]) was 4.7 µM (≈ 2.09 µg/mL), the MIC (Neisseria gonorrhoeae [13]) was 12.5 µM (≈ 5.55 µg/mL) and the MIC (Neisseria gonorrhoeae [14]) was 1.6 µM (≈ 0.71 µg/mL). The MIC (Neisseria meningitidis [15]) was 1 µM (≈ 0.444 µg/mL), the MIC (Neisseria meningitidis [16]) was > 25 µM and the MIC (Neisseria meningitidis [17]) was 1.7 µM (≈ 0.755 µg/mL). For the same compound, the MIC (Neisseria meningitidis [18]) was 1 µM (≈ 0.444 µg/mL), the MIC (Neisseria meningitidis [19]) was 3.1 µM (≈ 1.38 µg/mL) and the MIC (Neisseria meningitidis [20]) was 4.7 µM (≈ 2.09 µg/mL). For the same compound, the MIC (Neisseria meningitidis [21]) was 1.6 µM (≈ 0.71 µg/mL), the MIC (Neisseria meningitidis [22]) was 2.4 µM (≈ 1.07 µg/mL) and the MIC (Neisseria meningitidis [23]) was 0.3 µM (≈ 0.133 µg/mL). The MIC (Neisseria meningitidis [24]) was 1.6 µM (≈ 0.71 µg/mL) and the MIC (Neisseria meningitidis [25]) was 0.3 µM (≈ 0.133 µg/mL).
